The term EC50 denotes the concentration needed to bring the measured effect to its halfway point. Broadly, the half-life is the time in which the quantity being followed falls by half.

Read-outs that look alike come from different tables or passages of the source.

Five compounds from patent US6051417A, “Prostate cancer drug screening using hKLK2 enhancer” (Calydon, Inc., priority 1997, dated 2000) can be followed below.

In series [1] the test system is PSE-Luc/LNCaP cell line CN1013. Kind of series: Stably transfected PSE-Luc/LNCaP cell line CN1013 (and subclone CN1013.7), luciferase assay. To be noted: for inhibition of luciferase expression after induction with 1 nM R1881: CN1013, all anti-androgen concentrations examined; for concentration, relative to R1881, giving luciferase expression levels similar to R1881 / luciferase expression at physiological concentrations: CN1013, anti-androgen alone.

Series [2] deals with hKLK2 promoter/enhancer-luciferase constructs in LNCaP cells. Kind of series: hKLK2 promoter/enhancer-driven luciferase expression in transfected LNCaP cells. The class given is cell-based, human. To be noted: for fold induction at 0.001 µM: Homo sapiens, LNCaP, 48 h. The text has this:
To assess the function of the DNA segment containing the enhancer, a series of constructs was generated by inserting the hKLK2 5'-flanking region, shown schematically in FIG. 2, upstream of the luciferase reporter gene. The activity of these fragments was compared with that of CN299, a plasmid with the full hKLK2 promoter (-605 to +33) driving the expression of firefly luciferase. The constructs are as follows:
To determine the effect of the 12 kbp 5'-flanking sequence on promoter activity, two constructs were created: CN299 and CN322. The hKLK2 promoter was cloned upstream of the luc gene to create CN299, as described in Example 2. The entire 12 kbp sequence upstream of the hKLK2 gene (including the promoter) was cloned upstream of the luc gene to create CN322, as described in Example 2. Each construct was then used to transfect LNCaP cells. The media in half of the dishes was supplemented with 0.5 nM R1881. The cells were harvested 48 hours post transfection and the luciferase activity was measured. […] At both R1881 concentrations tested, CN322 had higher activity than CN299.
To determine if the hKLK2 5'-flanking sequence did indeed contain an androgen responsive element, two experiments were conducted. In the first experiment, LNCaP cells were transfected with CN322, the transformants were incubated in medium containing various concentrations of R1881, and 48 hours after transfection, luciferase activity was measured. […] Peak induction of activity was estimated at 1 nM R1881, about 9 fold over the 0 nM activity.
(§1) Knowing that the PSA enhancer is tissue specific, a series of experiments was conducted to determine if the same was true for the hKLK2 enhancer. In the first experiment, LNCaP cells (a PSA-producing prostate cancer cell line) and 293s (a human embryonic kidney cell line) were transfected with CN299 or CN322 (Example 2). Half of the dishes were supplemented with 1 nM R1881, and the cells were harvested 48 hours post transfection. […] The results of this experiment again support the conclusion that the hKLK2 enhancer is androgen inducible.
(§2) This 3.8 kbp fragment was fused upstream of the minimal hKLK2 promoter and then cloned upstream of the luc gene, creating CN355. A variety of cell lines were transfected with CN322 or CN355 by incubating them with the complexes in complete media overnight. The complexes were then aspirated and the media was replaced with stripped serum media. The media in half of the plates was supplemented with 1 nM R1881. The cells were then harvested 48 hours after the removal of the DNA-lipid complexes and tested for luciferase activity.

Series [3] deals with CMV-Luc/LNCaP stable cell line. Kind of series: CMV-Luc/LNCaP stable cell line luciferase expression (control). The format is cell-based, human. To be noted: 10-1000 nM androgen. As for the experimental part:
CMV-Luc/LNCaP Cell Line. Transfections of the control plasmid, CMV-Luc, into LNCaP cells were done in the same fashion as for PSE-Luc. The stable cell line CN1006, containing CMV-Luc, was obtained by selection with G418. The luciferase assay was performed as described above.
Luciferase Expression of CMV-Luc/LNCaP Stable Cell Line. LNCaP clones containing the CMV-Luc gene were screened for stable expression of the luciferase gene (i.e. selection of stable cell line). A 3-4 fold increase in expression levels over the uninduced cells was observed upon the addition of 10-1000 nM androgen. A similar androgen stimulation of CMV-Luc expression in transient transfection of LNCaP cells was reported by Pang et al., Hum. Gene Ther. (1995) 6:1417-1426. The slight increase in expression levels was attributed to cell proliferation resulting from increased R1881 addition.

Series [4] concerns hKLK2 promoter/enhancer-luciferase constructs in 293 cells. Kind of series: hKLK2 promoter/enhancer-driven luciferase expression in transfected 293 cells. The class given is cell-based, human. To be noted: 1 nM R1881. As for the experimental part: as §1
Series [5] deals with CN322 or CN355 in OVCAR, 293, PC3 cells. Kind of series: hKLK2 enhancer/promoter luciferase activity in other cell lines (OVCAR, 293, PC3). The class given is cell-based. To be noted: Homo sapiens, 48 h, read-out: fold induction of activity. As for the experimental part:
FIG. 7 is a bar graph depicting the activity of the hKLK2 enhancer/promoter in various cell lines. Various cell lines were transfected with either CN322 or CN355, and, after an overnight incubation in complete medium, were incubated in the presence or absence of R1881. CN355 contains a 3.8 kb fragment from approximately -6200 to approximately -2400 of the hKLK2 enhancer fused to the minimal hKLK2 promoter to control luciferase expression. The cell lines used were: OVCAR, human ovarian adenocarcinoma; 293, transformed human primary embryonal kidney; PC3, human grade IV prostate adenocarcinoma; LNCaP, metastatic human prostate adenocarcinoma.
as §2

Series [6] relates to PSE-Luc (PSA enhancer/promoter-luciferase) in LNCaP cells. Briefly: Transient transfection of LNCaP cells with PSE-Luc, luciferase assay.
Another series concerns CN1013 cells. Briefly: Metabolism of dihydrotestosterone in CN1013 cell line (Testosterone ELISA).
Test in series [7]: as above
The settings on record: human, cn1013 cells.

Take `CC1=C(/C=C/C(C)=C/C=C/C(C)=C/C(=O)O)C(C)(C)CCC1` [retinoic acid]: in series [1] (CN1013, non-steroidal ligand unrelated to androgen receptor), the “induction or inhibition of CN1013 luciferase” value is listed as “did not result in either induction or inhibition”.

In the case of `C[C@]1(O)CC[C@H]2[C@@H]3CCC4=CC(=O)CCC4=C3C=C[C@@]21C` [R1881, methyl trienolone], in series [2] (CN322, LNCaP, 0-10 nM R1881), the “response of CN322 luciferase activity to concentration” value is “concentration dependent manner”. In addition, the “fold induction of luciferase activity” value in series [2] (CN379, same assay methods, R1881) is given as “approximately 54 fold”. Moreover, the fold induction at 0.001 µM was 2 to 3 in series [2] (read-out: fold induction of activity vs 0 nM R1881, CN299, LNCaP, 1 nM R1881, 48 hours); 17 in series [2] (read-out: fold induction of activity vs 0 nM R1881, CN322, LNCaP, 1 nM R1881, 48 hours (Example 5 first experiment, FIG. 6)); ~100 in series [2] (read-out: fold induction of activity, CN322, LNCaP, 1 nM R1881, stripped serum media, 48 hours (FIG. 7)); 35 in series [2] (read-out: fold induction of activity, CN355, LNCaP, 1 nM R1881, stripped serum media, 48 hours (FIG. 7)); ~9 in series [2] (read-out: peak induction of luciferase activity over the 0 nM activity, CN322, LNCaP, 1 nM R1881, 48 hours after transfection); 1 to 2 in series [5]. In series [3], the “fold increase in expression levels over uninduced cells” value is 3-4 fold. The “change of luciferase activity” value in series [4] (CN299, 293 cells) is “reduction of activity”; in series [4] (CN322, 293 cells), “reduction of luciferase activity”. Besides, the “concentration giving peak levels of luciferase expression” value in series [6] is 1 nM. Also, the luciferase expression in series [6] (1-50 nM R1881, 48 hours) is given as 3,000-3,500 RLUs. For the same compound, in series [1] (CN1013), the “concentration giving peak values of induction” value was in the range of 0.1 to 1 nM. Besides, the concentration for a half-maximal effect (EC50) in series [1] (Homo sapiens, LNCaP, read-out: EC50 of luciferase induction) stood at 0.075 nM. Further, the “fold induction of luciferase” value in series [1] (subclone CN1013.7) is reported as 100-200 fold.

Turning to `CC(=O)O[C@]1(C(C)=O)CC[C@H]2[C@@H]3C=C(Cl)C4=CC(=O)[C@@H]5C[C@@H]5[C@]4(C)[C@H]3CC[C@@]21C` [cyproterone acetate], in series [1], the “inhibition of luciferase expression after induction with 1 nM R1881” value is “neither inhibition nor induction”; the “concentration, relative to R1881, giving luciferase expression levels similar to R1881” value was 100-1,000 fold; the “luciferase expression at physiological concentrations” value was “zero or minimal expression”.

`C[C@]12CCC(=O)C[C@@H]1CC[C@@H]1[C@@H]2CC[C@]2(C)[C@@H](O)CC[C@@H]12` [DHT, dihydrotestosterone]: the “time within which metabolism occurs after addition to CN1013 cells” value in the series with CN1013 cells lay in the range of 1 to 4 h. The “concentration when unexposed to CN1013 cells” value in the series with CN1013 cells (medium without cells) is on record as “remained constant”. Also, the half-life at 0.01 µM in series [7] was ~1.1 h. In addition, in series [6], the “amount required relative to R1881 to obtain comparable luciferase activity” value is reported as “approximately 100 fold”. Besides, the luciferase expression in series [6] (DHT 100 and 200 nM) is on record as 2,500-3,000 RLUs. In addition, the “amounts required for comparable expression relative to R1881” value in series [1] (CN1013) is on record as 100-200 fold.

Take `CC(C)(O)C(=O)Nc1ccc([N+](=O)[O-])c(C(F)(F)F)c1` [hydroxyflutamide]: in series [1], the “inhibition of luciferase expression after induction with 1 nM R1881” value is “neither inhibition nor induction”; the “concentration, relative to R1881, giving luciferase expression levels similar to R1881” value is listed as 100-1,000 fold; the “luciferase expression at physiological concentrations” value was “zero or minimal expression”.
